Data set [1] can be described thus: Metabolic stability test in liver S9. It is filed as in vitro ADME. The following applies: pH 7.4, human liver S9 2 mg protein/mL, LC/MS; for remaining at 10 min: unchanged form after 10 minutes at 37°C, read-out: Remaining rate in human liver S9 (%/10min); for remaining at 1 h: unchanged form after 60 minutes at 37°C, read-out: Remaining rate in human liver S9 (%/60min). As to the method:
Human liver S9 (final concentration: 2 mg protein/mL), was suspended in 100 mM potassium phosphate buffer (pH 7.4, containing β-nicotinamide adenine dinucleotide phosphate: 1.3 mM, D-glucose-6- phosphate: 3.3 mM, magnesium chloride: 3.3 mM, glucose-6-phosphate dehydrogenase:0.4 U/mL). The suspension was mixed with a solution of a sample dissolved in DMSO. The solution was incubated at 37°C for 0, 10 and 60 minutes, and an acetonitrile containing formic acid (final concentration: 0.1%) was added thereto. The solutions were centrifuged, and the concentration of the sample (unchanged form) in the supernatant was determined by high performance liquid chromatography/mass spectrometry (LC/MS). Based on the data obtained, remaining rate (%) was calculated according to the following equation. Remaining rate(%) = amount of sample 0,10, or 60 minutes after [formula] incubation/amount of sample at zero time after incubation × 100 [formula]
(§1) With respect to the compounds obtained in Working Examples according to the present invention (Compounds 1-1 to 1-115, 2-1, 3-1, 3-2, and 4-1 to 4-4), the results of the remaining rate in human liver S9 and plasma are shown in Tables 28 to 32.

A short description of data set [2]: Metabolic stability test in plasma. It is filed as in vitro ADME, human. Particulars: LC/MS; for remaining at 10 min: unchanged form after 10 minutes at 37°C in human plasma, read-out: Remaining rate in human plasma (%/10min); for remaining at 1 h: unchanged form after 60 minutes at 37°C in human plasma, read-out: Remaining rate in human plasma (%/60min). The procedure:
A sample dissolved in DMSO was added to plasma of human or animal species (mouse and hamster). The solutions were incubated at 37°C for 0, 10 and 60 minutes, and acetonitrile containing formic acid (final concentration: 0.1%) was added thereto. The solutions were centrifuged, and the concentration of the sample (unchanged form) in the supernatant was determined by high performance liquid chromatography/mass spectrometry (LC/MS). Based on the data obtained, the remaining rate (%) was calculated according to the following equation. Remaining rate(%) = amount of sample 0,10, or 60 minutes after incubation/amount of sample at zero time after incubation × 100 [formula]
as §1

A short description of data set [3]: Stability test in buffer (pH 7.4). It is filed as physicochemical. The following applies: phosphate buffer/acetonitrile 7:3, 100 mM potassium phosphate buffer (pH 7.4) and acetonitrile 7:3 (v/v), LC/MS; for remaining at 10 min: 10 minutes at 37°C, read-out: Buf. remaining rate (%/10min); for remaining at 1 h: 60 minutes at 37°C, read-out: Buf. remaining rate (%/60min). As to the method:
In the tables, Buf. remaining rate was determined by stability test in buffer (pH 7.4) as described below. A sample dissolved in DMSO was mixed with a mixed solution of 100 mM potassium phosphate buffer and acetonitrile in the ratio of 7:3 (v/v). The mixture was incubated at 37°C for 0, 10, and 60 minutes, and acetonitrile containing formic acid (final concentration: 0.1%) was added thereto. The solution was centrifuged, and the concentration of the sample (unchanged form) in the supernatant was determined by high performance liquid chromatography/mass spectrometry (LC/MS). Based on the data obtained, Buf. remaining rate (%) was calculated according to the following equation. Buf.remaining rate(%) = amount of sample 0,10, or 60 minutes after incubation/amount of sample at zero time after incubation × 100 [formula]

As for `CN(C)C(=O)c1cc(CCCC(=O)Oc2ccc(C(=O)OC3CCCc4ccccc43)cc2)ccc1NC(=O)c1ccccc1-c1ccc(C(F)(F)F)cc1` (stereo not drawn) [Compound 1-108, 4-[4-(3-dimethylcarbamoyl-4-{(4'-trifluoromethylbiphenyl-2-carbonyl)amino}phenyl)butyryloxy]benzoic acid 1,2,3,4-tetrahydronaphthalen-1-yl ester], the remaining at 10 min was found to be 25% in data set [1], 89% in data set [2] and 98% in data set [3]. The remaining at 1 h was determined as 5% in data set [1], 17% in data set [2] and 98% in data set [3].
With `CN(C)C(=O)c1cc(CCCC(=O)Oc2ccc(C(=O)OCc3cccc(Cl)c3)cc2)ccc1NC(=O)c1ccccc1-c1ccc(C(F)(F)F)cc1` [Compound 1-87, 4-[4-(3-dimethylcarbamoyl-4-{(4'-trifluoromethylbiphenyl-2-carbonyl)amino}phenyl)butyryloxy]benzoic acid 3-chlorobenzyl ester], the figures for the remaining at 10 min in data set [1], in data set [2] and in data set [3] were 11%, 60% and 100%, respectively. The remaining at 1 h was 2% in data set [1], 2% in data set [2] and 104% in data set [3].
With `CN(C)C(=O)Cn1nnc(-c2ccc(OC(=O)CCCc3ccc(NC(=O)c4ccccc4-c4ccc(C(F)(F)F)cc4)c(C(=O)N(C)C)c3)cc2)n1` [Compound 1-105, 4-(3-dimethylcarbamoyl-4-{(4'-trifluoromethylbiphenyl-2-carbonyl)amino}phenyl)butyric acid 4-(2-dimethylcarbamoylmethyl-2H-tetrazol-5-yl)phenyl ester], the remaining at 10 min stood at 3% in data set [1], 84% in data set [2] and 101% in data set [3]. The figures for the remaining at 1 h in data set [1], in data set [2] and in data set [3] were 0%, 43% and 101%, respectively.
As for `COC(=O)c1cc(C)c(OC(=O)CCCc2ccc(NC(=O)c3ccccc3-c3ccc(C(F)(F)F)cc3)c(C(=O)N(C)C)c2)c(Cl)c1` [Compound 1-34, 3-chloro-4-(4-{3-dimethylcarbamoyl-4-[(4'-trifluoromethylbiphenyl-2-carbonyl)amino]phenyl}butyryloxy)-5-methylbenzoic acid methyl ester], the remaining at 10 min is 16% in data set [1], 52% in data set [2] and 98% in data set [3]. The values for the remaining at 1 h in data set [1], in data set [2] and in data set [3] were 4%, 0% and 103%, respectively.
For the compound `CCc1cc(C(=O)OC)cc(F)c1OC(=O)CCCc1ccc(NC(=O)c2ccc(C)nc2-c2ccc(C(F)(F)F)cc2)c(C(=O)N(C)C)c1` [Compound 1-42, 4-[4-(3-dimethylcarbamoyl-4-{[6-methyl-2-(4-trifluoromethylphenyl)pyridine-3-carbonyl]amino}phenyl)butyryloxy]-3-ethyl-5-fluorobenzoic acid methyl ester], the remaining at 10 min came out at 5% in data set [1], 52% in data set [2] and 103% in data set [3]. The remaining at 1 h in data set [1] stood at 0%; in data set [2], 0%; in data set [3], 103%.
Consider `COC(=O)c1cc(Cl)c(OC(=O)CCCc2ccc(NC(=O)c3ccc(C)nc3-c3ccc(C(F)(F)F)cc3)c(C(=O)N(C)C)c2)c(OC)c1` [Compound 1-36, 3-chloro-4-[4-(3-dimethylcarbamoyl-4-{[6-methyl-2-(4-trifluoromethylphenyl)pyridine-3-carbonyl]amino}phenyl)butyryloxy]-5-methoxybenzoic acid methyl ester], for which the remaining at 10 min in data set [1] came out at 3%; in data set [2], 0%; in data set [3], 100%. For the same compound, the figures for the remaining at 1 h in data set [1], in data set [2] and in data set [3] were 0%, 0% and 103%, respectively.
Turning to `CN(C)C(=O)COC(=O)c1ccc(OC(=O)CCCc2ccc(NC(=O)c3ccccc3-c3ccc(C(F)(F)F)cc3)c(C(=O)N(C)C)c2)cc1` [Compound 1-85, 4-[4-(3-dimethylcarbamoyl-4-{(4'-trifluoromethylbiphenyl-2-carbonyl)amino}phenyl)butyryloxy]benzoic acid dimethylcarbamoylmethyl ester], the remaining at 10 min in data set [1] was found to be 0%; in data set [2], 61%; in data set [3] it was 103%. The results for the remaining at 1 h in data set [1], in data set [2] and in data set [3] were 0%, 4% and 102%, respectively.
As for `CN(C)C(=O)c1cc(CCCC(=O)Oc2ccc(C(=O)OCc3ccsc3)cc2)ccc1NC(=O)c1ccccc1-c1ccc(C(F)(F)F)cc1` [Compound 1-99, 4-[4-(3-dimethylcarbamoyl-4-{(4'-trifluoromethylbiphenyl-2-carbonyl)amino}phenyl)butyryloxy]benzoic acid thiophen-3-ylmethyl ester], the remaining at 10 min was 6% in data set [1], 5% in data set [2] and 98% in data set [3]. Moreover, the remaining at 1 h stood at 0% in data set [1], 0% in data set [2] and 99% in data set [3].
For `CN(C)C(=O)c1cc(CCCC(=O)Oc2ccc(C(=O)OCCCOCc3ccccc3)cc2)ccc1NC(=O)c1ccccc1-c1ccc(C(F)(F)F)cc1` [Compound 1-90, 4-[4-(3-dimethylcarbamoyl-4-{(4'-trifluoromethylbiphenyl-2-carbonyl)amino}phenyl)butyryloxy]benzoic acid 3-benzyloxypropyl ester], the remaining at 10 min in data set [1] amounted to 7%; in data set [2], 50%; in data set [3] it was 102%. The remaining at 1 h in data set [1] is 0%; in data set [2] it was 0%; in data set [3], 103%.
As to `CC(C)OC(=O)c1ccc(OC(=O)CCCc2ccc(NC(=O)c3cccnc3-c3ccc(C(F)(F)F)cc3)c(C(=O)N(C)C)c2)cc1` [Compound 1-31, 4-[4-(3-dimethylcarbamoyl-4-{[2-(4-trifluoromethylphenyl)pyridine-3-carbonyl]amino}phenyl)butyryloxy]benzoic acid isopropyl ester], the remaining at 10 min in data set [1] came to 0%; in data set [2] it was 26%; in data set [3] it was 101%. Moreover, the remaining at 1 h in data set [1] turned out to be 0%; in data set [2], 0%; in data set [3], 102%.
`COc1cccc(COC(=O)c2ccc(OC(=O)CCCc3ccc(NC(=O)c4ccccc4-c4ccc(C(F)(F)F)cc4)c(C(=O)N(C)C)c3)cc2)c1` [Compound 1-97, 4-[4-(3-dimethylcarbamoyl-4-{(4'-trifluoromethylbiphenyl-2-carbonyl)amino}phenyl)butyryloxy]benzoic acid 3-methoxybenzyl ester]: the remaining at 10 min in data set [1] is 13%; in data set [2] it was 49%; in data set [3], 100%. For the same compound, the remaining at 1 h was 7% in data set [1], 0% in data set [2] and 104% in data set [3].
